# From PubChem BioAssay (NCI)
#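 Results reflect a 48-hour exposure of cells in 96-well plates to compound at five concentrations. TGI marks complete inhibition of growth.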
# Assays:
# Assay in all cases: NCI tumour cell line growth inhibition, 48 h
# 786-0 renal = tested on: 786-0 renal
# DU-145 prostate = tested on: DU-145 prostate
# SNB-75 CNS = tested on: SNB-75 CNS
# PC-3 prostate = tested on: PC-3 prostate
# HOP-62 NSCLC = tested on: HOP-62 NSCLC
# CCRF-CEM leukemia = tested on: CCRF-CEM leukemia
# HCT-116 colon = tested on: HCT-116 colon
# KM12 colon = tested on: KM12 colon
# MDA-N = tested on: MDA-N
# RPMI-8226 leukemia = tested on: RPMI-8226 leukemia
# A498 renal = tested on: A498 renal
# TK-10 renal = tested on: TK-10 renal
# SN12C renal = tested on: SN12C renal
# A549 NSCLC = tested on: A549 NSCLC
# MOLT-4 leukemia = tested on: MOLT-4 leukemia
# MDA-MB-435 = tested on: MDA-MB-435
# BT-549 breast = tested on: BT-549 breast
# HT29 colon = tested on: HT29 colon
# SK-MEL-2 melanoma = tested on: SK-MEL-2 melanoma
# SF-295 CNS = tested on: SF-295 CNS
# CAKI-1 renal = tested on: CAKI-1 renal
# OVCAR-4 ovarian = tested on: OVCAR-4 ovarian
# HCT-15 colon = tested on: HCT-15 colon
# HS 578T breast = tested on: HS 578T breast
# COLO 205 colon = tested on: COLO 205 colon
# SK-MEL-28 melanoma = tested on: SK-MEL-28 melanoma
# OVCAR-5 ovarian = tested on: OVCAR-5 ovarian
# HCC-2998 colon = tested on: HCC-2998 colon
# SNB-19 CNS = tested on: SNB-19 CNS
# UO-31 renal = tested on: UO-31 renal
# T-47D breast = tested on: T-47D breast
# SW-620 colon = tested on: SW-620 colon
# SK-MEL-5 melanoma = tested on: SK-MEL-5 melanoma
# EKVX NSCLC = tested on: EKVX NSCLC
# SF-539 CNS = tested on: SF-539 CNS
# IGROV1 ovarian = tested on: IGROV1 ovarian
# M14 melanoma = tested on: M14 melanoma
# U251 CNS = tested on: U251 CNS
# NCI-H460 lung = tested on: NCI-H460 lung
# K-562 leukemia = tested on: K-562 leukemia
# ACHN renal = tested on: ACHN renal
# UACC-257 melanoma = tested on: UACC-257 melanoma
# NCI/ADR-RES ovarian = tested on: NCI/ADR-RES ovarian
# OVCAR-3 ovarian = tested on: OVCAR-3 ovarian
# MCF7 breast = tested on: MCF7 breast
# NCI-H23 lung = tested on: NCI-H23 lung
# UACC-62 melanoma = tested on: UACC-62 melanoma
# MALME-3M melanoma = tested on: MALME-3M melanoma
# SF-268 CNS = tested on: SF-268 CNS
# MDA-MB-231 breast = tested on: MDA-MB-231 breast
# NCI-H226 lung = tested on: NCI-H226 lung
# HL-60(TB) leukemia = tested on: HL-60(TB) leukemia
# OVCAR-8 ovarian = tested on: OVCAR-8 ovarian
# NCI-H522 lung = tested on: NCI-H522 lung
# HOP-92 NSCLC = tested on: HOP-92 NSCLC
# RXF 393 renal = tested on: RXF 393 renal
# SR leukemia = tested on: SR leukemia
# LOX IMVI melanoma = tested on: LOX IMVI melanoma
# SK-OV-3 ovarian = tested on: SK-OV-3 ovarian
structure (smiles),measurement,setting,value
CSC1=N[C@H](c2ccccc2)CS1,TGI,786-0 renal,> 100 µM
same,TGI,DU-145 prostate,> 100 µM
same,TGI,SNB-75 CNS,> 100 µM
same,TGI,PC-3 prostate,> 100 µM
same,TGI,HOP-62 NSCLC,> 100 µM
same,TGI,CCRF-CEM leukemia,> 100 µM
same,TGI,HCT-116 colon,> 100 µM
same,TGI,KM12 colon,> 100 µM
same,TGI,MDA-N,> 100 µM
same,TGI,RPMI-8226 leukemia,> 100 µM
same,TGI,A498 renal,> 100 µM
same,TGI,TK-10 renal,> 100 µM
same,TGI,SN12C renal,> 100 µM
same,TGI,A549 NSCLC,> 100 µM
same,TGI,MOLT-4 leukemia,> 100 µM
same,TGI,MDA-MB-435,> 100 µM
same,TGI,BT-549 breast,> 100 µM
same,TGI,HT29 colon,> 100 µM
same,TGI,SK-MEL-2 melanoma,> 100 µM
same,TGI,SF-295 CNS,> 100 µM
same,TGI,CAKI-1 renal,> 100 µM
same,TGI,OVCAR-4 ovarian,> 100 µM
same,TGI,HCT-15 colon,> 100 µM
same,TGI,HS 578T breast,> 100 µM
same,TGI,COLO 205 colon,> 100 µM
same,TGI,SK-MEL-28 melanoma,> 100 µM
same,TGI,OVCAR-5 ovarian,> 100 µM
same,TGI,HCC-2998 colon,> 100 µM
same,TGI,SNB-19 CNS,> 100 µM
same,TGI,UO-31 renal,> 100 µM
same,TGI,T-47D breast,> 100 µM
same,TGI,SW-620 colon,> 100 µM
same,TGI,SK-MEL-5 melanoma,> 100 µM
same,TGI,EKVX NSCLC,> 100 µM
same,TGI,SF-539 CNS,> 100 µM
same,TGI,IGROV1 ovarian,> 100 µM
same,TGI,M14 melanoma,> 100 µM
same,TGI,U251 CNS,> 100 µM
same,TGI,NCI-H460 lung,> 100 µM
same,TGI,K-562 leukemia,> 100 µM
same,TGI,ACHN renal,> 100 µM
same,TGI,UACC-257 melanoma,> 100 µM
same,TGI,NCI/ADR-RES ovarian,> 100 µM
same,TGI,OVCAR-3 ovarian,> 100 µM
same,TGI,MCF7 breast,> 100 µM
same,TGI,NCI-H23 lung,> 100 µM
same,TGI,UACC-62 melanoma,> 100 µM
CCOC(=O)/C(O)=C(/C=N\C(=S)Nc1ccccc1Cl)C(=O)OCC,TGI,786-0 renal,> 100 µM
same,TGI,DU-145 prostate,> 100 µM
same,TGI,SNB-75 CNS,> 100 µM
same,TGI,PC-3 prostate,> 100 µM
same,TGI,MALME-3M melanoma,> 100 µM
same,TGI,HOP-62 NSCLC,> 100 µM
same,TGI,CCRF-CEM leukemia,> 100 µM
same,TGI,HCT-116 colon,> 100 µM
same,TGI,KM12 colon,> 100 µM
same,TGI,MDA-N,> 100 µM
same,TGI,RPMI-8226 leukemia,> 100 µM
same,TGI,SF-268 CNS,> 100 µM
same,TGI,A498 renal,> 100 µM
same,TGI,MDA-MB-231 breast,> 100 µM
same,TGI,NCI-H226 lung,> 100 µM
same,TGI,SN12C renal,> 100 µM
same,TGI,A549 NSCLC,> 100 µM
same,TGI,HL-60(TB) leukemia,> 100 µM
same,TGI,MOLT-4 leukemia,> 100 µM
same,TGI,MDA-MB-435,> 100 µM
same,TGI,OVCAR-8 ovarian,> 100 µM
same,TGI,HT29 colon,> 100 µM
same,TGI,SK-MEL-2 melanoma,> 100 µM
same,TGI,SF-295 CNS,> 100 µM
same,TGI,CAKI-1 renal,> 100 µM
same,TGI,OVCAR-4 ovarian,> 100 µM
same,TGI,NCI-H522 lung,> 100 µM
same,TGI,HCT-15 colon,> 100 µM
same,TGI,HS 578T breast,> 100 µM
same,TGI,COLO 205 colon,> 100 µM
same,TGI,SK-MEL-28 melanoma,> 100 µM
same,TGI,HOP-92 NSCLC,90.9 µM
same,TGI,OVCAR-5 ovarian,> 100 µM
same,TGI,HCC-2998 colon,> 100 µM
same,TGI,SNB-19 CNS,> 100 µM
same,TGI,UO-31 renal,> 100 µM
same,TGI,T-47D breast,> 100 µM
same,TGI,RXF 393 renal,> 100 µM
same,TGI,SW-620 colon,> 100 µM
same,TGI,SK-MEL-5 melanoma,> 100 µM
same,TGI,EKVX NSCLC,> 100 µM
same,TGI,SF-539 CNS,> 100 µM
same,TGI,SR leukemia,> 100 µM
same,TGI,IGROV1 ovarian,> 100 µM
same,TGI,M14 melanoma,> 100 µM
same,TGI,LOX IMVI melanoma,> 100 µM
same,TGI,U251 CNS,> 100 µM
same,TGI,NCI-H460 lung,> 100 µM
same,TGI,K-562 leukemia,> 100 µM
same,TGI,ACHN renal,> 100 µM
same,TGI,UACC-257 melanoma,> 100 µM
same,TGI,SK-OV-3 ovarian,> 100 µM
same,TGI,NCI/ADR-RES ovarian,> 100 µM
same,TGI,OVCAR-3 ovarian,> 100 µM
same,TGI,MCF7 breast,> 100 µM
same,TGI,NCI-H23 lung,> 100 µM
same,TGI,UACC-62 melanoma,> 100 µM
